{
  "source": "patent US20200390753A1",
  "about": "“COMBINATION THERAPY USING ENANTIOPURE, OXY-SUBSTITUTED, DEUTERIUM-ENRICHED 5-(BENZYL)-5-DEUTERO-THIAZOLIDINE-2,4-DIONES FOR TREATMENT OF MEDICAL DISORDERS” (priority 2015, published 2020)",
  "key": {"[1]": {"conditions": "for k RS: enantiomerization rate constant h-R-pio to h-S-pio / k SR: enantiomerization rate constant h-S-pio to h-R-pio: 5 M (sic)"}, "[2]": {"conditions": "for k RS: enantiomerization rate constant h-R-pio to h-S-pio / k SR: enantiomerization rate constant h-S-pio to h-R-pio: C57BL/6, mouse, 5 M (sic)"}, "C2C12 cells": {"test_system": "C2C12 cells", "experiment": "Mitochondrial respiration (mitochondrial stress test, maximal respiration) in C2C12 cells", "type": "cell-based", "conditions": "30 µM for 15, 30, or 90 min, vs vehicle-treated cells; 10 mM sodium pyruvate", "text": "[…]. […] […]."}, "[3]": {"experiment": "Body weight gain in male C57BL/6J mice on a standard diet", "type": "in vivo", "conditions": "twice daily oral gavage 11 days; overall daily dose h-rac-pio 30 mg/kg, d-S-pio 15 mg/kg, d-R-pio 15 mg/kg", "description": "Male C57BL/6J mice (about 28 g body weight) were acclimated singly-housed for one week to a reverse light/dark cycle with free access to water and standard maintenance diet. Animals were then handled daily for one week followed by another 7 days of twice daily dosing with vehicle (0.5% methylcellulose in water) by oral gavage. […] Body weights were measured twice daily, prior to each dosing, to adjust individual dosing volumes to actual body weights."}, "db/db mice": {"test_system": "db/db mice", "experiment": "db/db mouse model of Type II diabetes, 10-day daily oral dosing", "type": "in vivo", "conditions": "oral daily 10 days, h-rac-pio 30 mg/kg; for decrease of cytokines IL-1p, IL-6, and TNF-α / decrease of serum amyloid A / effect on non-essential fatty acids (decrease compared with h-rac-pio) / effect on non-fasted blood glucose: d-R-pio 20 mg/kg; for effect on adiponectin / effect on non-essential fatty acids (decrease compared with h-rac-pio) / effect on non-fasted blood glucose: d-S-pio 20 mg/kg", "description": "Quantitative results were analyzed by statistical methods using, as appropriate, one- or two-way ANOVA or Kruskal-Wallis tests for differences followed by Sidak's, Dunnett's, or Dunn's post-test to determine differences vs. vehicle-treated control animals. All graphs were generated with GraphPad Prism version 6.0.2 (GraphPad Software, Inc., La Jolla, Calif.)."}, "[4]": {"biological_target": "T1, human recombinant monoamine oxidase B (Homo sapiens, UniProt P27338)", "T1 sequence (P27338 1-520)": "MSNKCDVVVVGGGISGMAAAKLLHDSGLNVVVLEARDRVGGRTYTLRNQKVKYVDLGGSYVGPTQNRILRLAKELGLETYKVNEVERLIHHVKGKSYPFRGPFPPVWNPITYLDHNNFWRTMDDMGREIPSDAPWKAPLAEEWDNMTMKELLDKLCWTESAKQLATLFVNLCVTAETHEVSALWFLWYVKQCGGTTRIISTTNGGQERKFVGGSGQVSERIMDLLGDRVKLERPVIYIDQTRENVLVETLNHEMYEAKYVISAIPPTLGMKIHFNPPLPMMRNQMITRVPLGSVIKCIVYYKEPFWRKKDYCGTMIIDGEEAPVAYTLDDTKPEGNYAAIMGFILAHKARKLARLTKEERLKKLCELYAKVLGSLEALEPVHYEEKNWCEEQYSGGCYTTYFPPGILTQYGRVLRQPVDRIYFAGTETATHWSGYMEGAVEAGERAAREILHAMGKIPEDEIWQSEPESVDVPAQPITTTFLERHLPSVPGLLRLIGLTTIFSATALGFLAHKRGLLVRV", "experiment": "Monoamine oxidase B (MAO-B) inhibition, luminescence", "type": "biochemical", "description": "The mixtures were incubated at 22° C. for 5 min. Substrate (D-luciferin derivative) was added, and then the mixture was incubated at 37° C. for 60 min. The reaction was stopped by addition of the detection reagent containing luciferase. Luminescence was read after standing for 60 min at room temperature.\nResults were expressed as a percentage of the luminescence of the control (enzyme+substrate). IC50 values were obtained by fitting experimental data (mean % luminescence as function of concentration) to the Hill equation with variable slope using non-linear regression analysis."}},
  "note": "Like-named read-outs stand apart in the source and are kept apart here.",
  "data": [
    {"smiles": "[2H]C1(Cc2ccc(OCCc3ccc(CC)cn3)cc2)SC(=O)NC1=O", "note": "(racemic) [d-rac-pio]", "values": [
      {"measurement": "t1/2 of h-R-pio (RS*) from averaged kRS", "setting": "[1]; human, plasma", "value": 96, "unit": "min"},
      {"measurement": "t1/2 of h-S-pio (SR*) from averaged kSR", "setting": "[1]; human, plasma", "value": 96, "unit": "min"},
      {"measurement": "t1/2 of d-S-pio (k=kDSR+kDSS)", "setting": "[2]; mouse, plasma", "value": 36, "unit": "min"},
      {"measurement": "t1/2 of h-R-pio (RS*) from averaged kRS", "setting": "[2]; mouse, plasma", "value": 54, "unit": "min"},
      {"measurement": "t1/2 of h-S-pio (SR*) from averaged kSR", "setting": "[2]; mouse, plasma", "value": 45, "unit": "min"}
    ]},
    {"smiles": "CCc1ccc(CCOc2ccc(CC3SC(=O)NC3=O)cc2)nc1", "note": "(racemic) [h-rac-pio, rac-5-({p-[2-(5-Ethyl-2-pyridyl)ethoxy]phenyl}methyl)-1,3-thiazolidine-2,4-dione, reference compound]", "values": [
      {"measurement": "effect on maximal respiration (oxygen consumption rate)", "setting": "C2C12 cells", "value": "inhibited maximal respiration"},
      {"measurement": "percent body weight difference versus day 1, compared to vehicle", "setting": "[3]", "value": "statistically significant increase"},
      {"measurement": "decrease of cytokines IL-1p, IL-6, and TNF-α", "setting": "db/db mice; vs vehicle", "value": "trending"},
      {"measurement": "decrease of serum amyloid A", "setting": "db/db mice; vs vehicle", "value": "statistically significant"},
      {"measurement": "effect on adiponectin", "setting": "db/db mice; vs vehicle", "value": "significantly increased"},
      {"measurement": "effect on insulin", "setting": "db/db mice; vs vehicle", "value": "significantly decreased"}
    ]},
    {"smiles": "[2H][C@]1(Cc2ccc(OCCc3ccc(CC)cn3)cc2)SC(=O)NC1=O", "note": "[d-R-pio, (R)-5-({p-[2-(5-Ethyl-2-pyridyl)ethoxy]phenyl}methyl)-(5-^2H)-1,3-thiazolidine-2,4-dione]", "values": [
      {"measurement": "effect on maximal respiration (oxygen consumption rate)", "setting": "C2C12 cells", "value": "inhibited maximal respiration"},
      {"measurement": "difference in inhibition efficacy between d-R-pio and d-S-pio", "setting": "[4]", "value": "greater than 5 fold"},
      {"measurement": "percent body weight difference versus day 1, compared to vehicle", "setting": "[3]", "value": "did not increase"},
      {"measurement": "decrease of cytokines IL-1p, IL-6, and TNF-α", "setting": "db/db mice; vs vehicle", "value": "trending"},
      {"measurement": "decrease of serum amyloid A", "setting": "db/db mice; vs vehicle", "value": "statistically significant"},
      {"measurement": "effect on non-essential fatty acids (decrease compared with h-rac-pio)", "setting": "db/db mice", "value": "a similar trend was observed"},
      {"measurement": "effect on non-fasted blood glucose", "setting": "db/db mice", "value": "decreased non-fasted blood glucose to approximately the same extent as h-rac-pio"}
    ]},
    {"smiles": "[2H][C@@]1(Cc2ccc(OCCc3ccc(CC)cn3)cc2)SC(=O)NC1=O", "note": "[d-S-pio, (S)-5-({p-[2-(5-Ethyl-2-pyridyl)ethoxy]phenyl}methyl)-(5-^2H)-1,3-thiazolidine-2,4-dione]", "values": [
      {"measurement": "half-life of d-S-pio compared with h-S-pio", "setting": "[1]; plasma", "value": "approximately the same as the half-life for h-S-pio"},
      {"measurement": "effect on maximal respiration (oxygen consumption rate)", "setting": "C2C12 cells", "value": "no significant measurable effect"},
      {"measurement": "percent body weight difference versus day 1, compared to vehicle", "setting": "[3]", "value": "statistically significant increase"},
      {"measurement": "effect on non-essential fatty acids (decrease compared with h-rac-pio)", "setting": "db/db mice", "value": "a similar trend was observed"},
      {"measurement": "effect on non-fasted blood glucose", "setting": "db/db mice", "value": "decreased non-fasted blood glucose to approximately the same extent as h-rac-pio"},
      {"measurement": "effect on adiponectin", "setting": "db/db mice; vs vehicle", "value": "significantly increased"}
    ]},
    {"smiles": "CCc1ccc(CCOc2ccc(C[C@@H]3SC(=O)NC3=O)cc2)nc1", "note": "[h-S-pio]", "values": [
      {"measurement": "k RS: enantiomerization rate constant h-R-pio to h-S-pio", "setting": "[1]; human", "value": 0.434, "unit": "h⁻¹"},
      {"measurement": "k SR: enantiomerization rate constant h-S-pio to h-R-pio", "setting": "[1]; human", "value": 0.427, "unit": "h⁻¹"},
      {"measurement": "k RS: enantiomerization rate constant h-R-pio to h-S-pio", "setting": "[2]", "value": 0.792, "unit": "h⁻¹"},
      {"measurement": "k SR: enantiomerization rate constant h-S-pio to h-R-pio", "setting": "[2]", "value": 0.979, "unit": "h⁻¹"}
    ]},
    {"smiles": "CCc1ccc(CCOc2ccc(C[C@H]3SC(=O)NC3=O)cc2)nc1", "note": "[h-R-pio]", "values": [
      {"measurement": "k RS: enantiomerization rate constant h-R-pio to h-S-pio", "setting": "[1]; human", "value": 0.447, "unit": "h⁻¹"},
      {"measurement": "k SR: enantiomerization rate constant h-S-pio to h-R-pio", "setting": "[1]; human", "value": 0.439, "unit": "h⁻¹"},
      {"measurement": "k RS: enantiomerization rate constant h-R-pio to h-S-pio", "setting": "[2]", "value": 0.694, "unit": "h⁻¹"},
      {"measurement": "k SR: enantiomerization rate constant h-S-pio to h-R-pio", "setting": "[2]", "value": 0.867, "unit": "h⁻¹"}
    ]}
  ]
}
